The assay has as its system genital area of the patient. The experiment in a line: Short term effect of the topical formulation applied to the genital area, as reported by users. The format is in vivo, human. To be noted: for somewhat improved sexual function continuing after use: middle-aged male, component of the formula; for functionality as component of the topical formulation: forms of coQ10 added to the formulation. An excerpt: The following examples are used to show the short term effect of the topical formulation when applied to the genital area of the patient.

Results on four molecules are retold here after patent US20170105986A1, “Topical Formulation to Enhance Genital Sensation and Function” (priority 2014, published 2017).

As for `Nc1ncnc2c1ncn2[C@@H]1O[C@H](COP(=O)(O)OP(=O)(O)OP(=O)(O)O)[C@@H](O)[C@H]1O` [ATP, adenosine triphosphate], the “somewhat improved sexual function continuing after use” value is on record as “about 10 hours”. In addition, the “period for which the effects of the topical formulation are prolonged following administration” value (ATP included in second core composition) was ~12 h.
As to `COC1=C(OC)C(=O)C(C/C=C(\C)CC/C=C(\C)CC/C=C(\C)CC/C=C(\C)CC/C=C(\C)CC/C=C(\C)CC/C=C(\C)CC/C=C(\C)CC/C=C(\C)CCC=C(C)C)=C(C)C1=O` [ubiquinone, reference compound], the “functionality as component of the topical formulation” value is reported as “seems not functional”.
Consider `NC(=O)c1ccc[n+]([C@@H]2O[C@H](CO)[C@@H](O)[C@H]2O)c1` [nicotinamide ribose, nicotinamide riboside], for which the “somewhat improved sexual function continuing after use” value is on record as “about 10 hours”.
Consider `COc1c(O)c(C)c(C/C=C(\C)CC/C=C(\C)CC/C=C(\C)CC/C=C(\C)CC/C=C(\C)CC/C=C(\C)CC/C=C(\C)CC/C=C(\C)CC/C=C(\C)CCC=C(C)C)c(O)c1OC` [ubiquinol, reference compound], for which the “functionality as component of the topical formulation” value is “seems not functional”.
